Experimental data as given in ChEMBL document CHEMBL1201862, “PubChem BioAssay data set” (2004).
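All cell lines were grown in 96-well plates and treated with compound for 48 hours. GI50: concentration for 50% inhibition of growth.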 The source made the active and inactive calls. No stated cut-off is given here; in the data, active = GI50 up to about 1.1 µM and inactive = higher.

What was measured:
Assay in all cases: DTP human tumour cell line panel, 48 h
SF-295 = tested on: SF-295
RXF 393 = tested on: RXF 393
NCI-H522 = tested on: NCI-H522
SK-MEL-2 = tested on: SK-MEL-2
NCI-H23 = tested on: NCI-H23
SNB-75 = tested on: SNB-75
A498 = tested on: A498
SW-620 = tested on: SW-620
KM-20L2 = tested on: KM-20L2
UACC-257 = tested on: UACC-257
MOLT-4 = tested on: MOLT-4
HCC 2998 = tested on: HCC 2998
M14 = tested on: M14
SF-268 = tested on: SF-268
786-0 = tested on: 786-0
ACHN = tested on: ACHN
T47D = tested on: T47D
MDA-MB-435 = tested on: MDA-MB-435
BT-549 = tested on: BT-549
DU-145 = tested on: DU-145

Row | Structure (SMILES) | GI50 (SF-295) | GI50 (RXF 393) | GI50 (NCI-H522) | GI50 (SK-MEL-2) | GI50 (NCI-H23) | GI50 (SNB-75) | GI50 (A498) | GI50 (SW-620) | GI50 (KM-20L2) | GI50 (UACC-257) | GI50 (MOLT-4) | GI50 (HCC 2998) | GI50 (M14) | GI50 (SF-268) | GI50 (786-0) | GI50 (ACHN) | GI50 (T47D) | GI50 (MDA-MB-435) | GI50 (BT-549) | GI50 (DU-145)
1 | O=C(O)c1ccc([I+]c2ccccc2)cc1 | > 100 µM (inactive) | > 100 µM (inactive) | > 100 µM (inactive) | > 100 µM (inactive) | > 100 µM (inactive) | > 100 µM (inactive) | > 100 µM (inactive) | > 100 µM (inactive) | > 100 µM (inactive) | > 100 µM (inactive) | > 100 µM (inactive) | > 100 µM (inactive) | > 100 µM (inactive) | > 100 µM (inactive) | > 100 µM (inactive) | – | – | – | – | –
2 | CCOP(=O)(Cc1ccc(CP(=O)(OCC)OCC)n1C)OCC | > 100 µM (inactive) | > 100 µM (inactive) | > 100 µM (inactive) | > 100 µM (inactive) | > 100 µM (inactive) | > 100 µM (inactive) | – | > 100 µM (inactive) | > 100 µM (inactive) | > 100 µM (inactive) | > 100 µM (inactive) | > 100 µM (inactive) | > 100 µM (inactive) | > 100 µM (inactive) | > 100 µM (inactive) | > 100 µM (inactive) | – | – | – | –
3 | O=S(=O)(OI(OI(OS(=O)(=O)C(F)(F)F)c1ccccc1)c1ccccc1)C(F)(F)F | 21.7 µM (inactive) | 17.3 µM (inactive) | 23.2 µM (inactive) | 38.5 µM (inactive) | – | 60.8 µM (inactive) | > 100 µM (inactive) | 32 µM (inactive) | 71.6 µM (inactive) | – | 20.2 µM (inactive) | > 100 µM (inactive) | 43 µM (inactive) | 31.3 µM (inactive) | 50.4 µM (inactive) | 52.1 µM (inactive) | – | – | – | –
4 | CN(C)/N=N/c1ccc(S(N)(=O)=O)cc1 | > 100 µM (inactive) | – | > 100 µM (inactive) | > 100 µM (inactive) | > 100 µM (inactive) | 92.9 µM (inactive) | > 100 µM (inactive) | > 100 µM (inactive) | > 100 µM (inactive) | > 100 µM (inactive) | > 100 µM (inactive) | > 100 µM (inactive) | > 100 µM (inactive) | > 100 µM (inactive) | > 100 µM (inactive) | > 100 µM (inactive) | – | – | – | –
5 | COc1c(C(=O)c2ccc([N+](=O)[O-])cc2)cc(C(C)(C)C)cc1C(C)(C)C | 39.1 µM (inactive) | 17.1 µM (inactive) | 21.5 µM (inactive) | 13.4 µM (inactive) | 34.7 µM (inactive) | 74.5 µM (inactive) | 55.8 µM (inactive) | 48.6 µM (inactive) | 35.6 µM (inactive) | 22.9 µM (inactive) | 16.4 µM (inactive) | 24.9 µM (inactive) | 22.9 µM (inactive) | 34.4 µM (inactive) | 40.9 µM (inactive) | 31.3 µM (inactive) | – | – | – | –
6 | COc1cc2ccn3c4cc(OC)c(OC)cc4cc3c2cc1OC | > 100 µM (inactive) | – | 11.3 µM (inactive) | > 100 µM (inactive) | > 100 µM (inactive) | > 100 µM (inactive) | > 100 µM (inactive) | > 100 µM (inactive) | > 100 µM (inactive) | > 100 µM (inactive) | > 100 µM (inactive) | > 100 µM (inactive) | 63.1 µM (inactive) | > 100 µM (inactive) | 33.5 µM (inactive) | > 100 µM (inactive) | – | – | – | –
7 | COc1cc(OC(=O)c2ccccc2)cc2c1C(=O)C=CC2=O | 17.3 µM (inactive) | 10.9 µM (inactive) | 5.31 µM (inactive) | 18.1 µM (inactive) | 16.2 µM (inactive) | 22.6 µM (inactive) | 18.5 µM (inactive) | 8.79 µM (inactive) | > 56.9 µM (inactive) | 16.2 µM (inactive) | 1.73 µM (inactive) | 4.58 µM (inactive) | 14.4 µM (inactive) | 16.8 µM (inactive) | 8.39 µM (inactive) | 12.8 µM (inactive) | 1.89 µM (inactive) | 5.65 µM (inactive) | 15.8 µM (inactive) | 17.7 µM (inactive)
8 | O=[N+]([O-])c1cccc(C2ON2C2CCCCC2)c1 (configuration not stated) | > 100 µM (inactive) | – | 17.4 µM (inactive) | 25.5 µM (inactive) | 24.7 µM (inactive) | 38.5 µM (inactive) | 27.4 µM (inactive) | 10 µM (inactive) | 22.3 µM (inactive) | 21.6 µM (inactive) | 18.3 µM (inactive) | 17.2 µM (inactive) | 18.5 µM (inactive) | 23.3 µM (inactive) | 17.4 µM (inactive) | 17.5 µM (inactive) | – | – | – | –
9 | C(=N\Nc1ccccc1)/c1nc2ccccc2nc1/C=N/Nc1ccccc1 | 16.2 µM (inactive) | 16.3 µM (inactive) | 16.5 µM (inactive) | 18.2 µM (inactive) | 13.3 µM (inactive) | 12.2 µM (inactive) | 16.6 µM (inactive) | 14.9 µM (inactive) | 8.73 µM (inactive) | 23 µM (inactive) | 13.2 µM (inactive) | 8.02 µM (inactive) | 14.7 µM (inactive) | 13.1 µM (inactive) | 15.6 µM (inactive) | 11.8 µM (inactive) | – | – | – | –
10 | COc1cc(C2C(C(=O)Nc3ccccc3)=C(C)NC(C)=C2C(=O)Nc2ccccc2)ccc1O | 49.9 µM (inactive) | > 100 µM (inactive) | > 10 µM (inactive) | 28.6 µM (inactive) | 39.5 µM (inactive) | 13.6 µM (inactive) | > 100 µM (inactive) | 37.9 µM (inactive) | 20.1 µM (inactive) | 61.9 µM (inactive) | 27.4 µM (inactive) | 27 µM (inactive) | – | > 100 µM (inactive) | 37.8 µM (inactive) | 98.9 µM (inactive) | – | – | – | –
11 | O=C1C=CC(=O)c2cc(Sc3ccccc3)c(=O)c(Sc3ccccc3)cc21 | > 100 µM (inactive) | 14 µM (inactive) | 12.4 µM (inactive) | > 100 µM (inactive) | 47.2 µM (inactive) | 85.3 µM (inactive) | > 100 µM (inactive) | > 100 µM (inactive) | > 100 µM (inactive) | > 100 µM (inactive) | 24 µM (inactive) | > 100 µM (inactive) | > 100 µM (inactive) | 42 µM (inactive) | 88.5 µM (inactive) | 12.8 µM (inactive) | – | – | – | –
12 | CCCCCC/C(CC(=O)CCC(=O)NCCc1ccccc1)=N\Nc1ccc([N+](=O)[O-])cc1[N+](=O)[O-] | > 100 µM (inactive) | > 100 µM (inactive) | 39.9 µM (inactive) | > 100 µM (inactive) | 45 µM (inactive) | – | 79.8 µM (inactive) | 68.1 µM (inactive) | > 100 µM (inactive) | 74.8 µM (inactive) | 21.4 µM (inactive) | > 100 µM (inactive) | > 100 µM (inactive) | 71.6 µM (inactive) | > 100 µM (inactive) | 97.7 µM (inactive) | – | – | – | –
13 | COC1=CC(C2c3cc4c(cc3[C@@H](Nc3ccc(F)cc3)C3COC(=O)[C@H]23)OCO4)=CC(=O)C1=O (some centres not stated) | 3.21 µM (inactive) | 50.2 µM (inactive) | 4.33 µM (inactive) | – | 2.88 µM (inactive) | 6.81 µM (inactive) | 2.43 µM (inactive) | 12.7 µM (inactive) | 25.7 µM (inactive) | 37.6 µM (inactive) | 0.524 µM (active) | 16.1 µM (inactive) | 7.82 µM (inactive) | 8.05 µM (inactive) | 3.29 µM (inactive) | 3.1 µM (inactive) | – | – | – | –
